Source: patent US20240252488A1 (KOREA RESEARCH INSTITUTE OF CHEMICAL TECHNOLOGY, priority 2020, published 2024)
Where a name gives a salt, the structure may show the parent alone.

target: T1, MLKL (Homo sapiens, UniProt Q8NB16); assay: Measurement of binding affinity with MLKL receptor (competitive binding assay, Kd); set-up: made in house; host or cells: HEK 293 cell line (T7 phage in E. coli BL21-derived host is also described); conditions: not given
T1 sequence (Q8NB16 1-471): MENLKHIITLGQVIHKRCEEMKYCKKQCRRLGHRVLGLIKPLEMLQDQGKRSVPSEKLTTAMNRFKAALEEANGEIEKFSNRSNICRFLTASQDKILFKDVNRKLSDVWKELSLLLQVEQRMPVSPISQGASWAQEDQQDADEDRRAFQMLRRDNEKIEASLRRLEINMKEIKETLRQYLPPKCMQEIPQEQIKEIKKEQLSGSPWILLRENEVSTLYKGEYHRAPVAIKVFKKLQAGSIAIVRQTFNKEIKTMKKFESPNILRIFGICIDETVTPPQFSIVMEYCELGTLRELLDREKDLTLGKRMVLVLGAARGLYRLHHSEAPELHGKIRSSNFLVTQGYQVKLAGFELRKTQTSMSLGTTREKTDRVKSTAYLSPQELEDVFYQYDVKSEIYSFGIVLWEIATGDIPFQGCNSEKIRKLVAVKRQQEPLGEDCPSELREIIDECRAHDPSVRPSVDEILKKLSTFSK
Experimental: Measurement of Binding Affinity with MLKL Receptor (Competitive Binding Assay)
The binding affinity was evaluated by measuring the Kd value in the following method.
To prepare kinase-tagged T7 phage strains in an E. coli host derived from the BL21 strain, E. coli were grown to log-phase and infected with T7 phage and incubated with shaking at 32° C. until lysis. The lysates were centrifuged and filtered to remove cell debris. For kinase production, it was expressed in human embryonic kidney cell line (HEK 293 cell line), and subsequently tagged with DNA for qPCR detection.
The liganded beads were blocked with excess biotin and washed with blocking buffer (SeaBlock (Pierce), 1% BSA, 0.05% Tween 20, 1 mM DTT) to remove unbound ligand and to reduce non-specific binding. […] Test compounds were prepared as 111× stocks in 100% DMSO.
The compounds were then diluted directly into the assays such that the final concentration of DMSO was 0.9%. All reactions performed in polypropylene 384-well plate. Each was a final volume of 0.02 ml. […] The kinase concentration in the eluates was measured by qPCR.

With `Nc1ncc(-c2cnn(C3CCNCC3)c2)nc1C(=O)OC(C(=O)Nc1ccc(F)cc1)c1ccc(F)cc1` (centres unmarked) [TDH-489, 1-(4-fluorophenyl)-2-((4-fluorophenyl)amino)-2-oxoethyl 3-amino-6-(1-(piperidin-4-yl)-1H-pyrazol-4-yl)pyrazine-2-carboxylate hydrochloride] as the compound, how does the Kd read?
The Kd was 1.2 nM.

For `CC(=O)N1CCC(n2cc(-c3cnc(N)c(C(=O)O[C@@H](C(=O)Nc4ccc(F)cc4)c4ccc(Cl)cc4)n3)cn2)CC1` [TDH-325, (R)-1-(4-chlorophenyl)-2-((4-fluorophenyl)amino)-2-oxoethyl 6-(1-(1-acetylpiperidin-4-yl)-1H-pyrazol-4-yl)-3-aminopyrazine-2-carboxylate], which Kd is on record?
The Kd was 1.1 nM.

For `Nc1ncc(-c2cnn(C3CCNCC3)c2)nc1C(=O)O[C@@H](C(=O)Nc1ccncc1)c1ccccc1` [TDH-479, (R)-2-oxo-1-phenyl-2-(pyridin-4-ylamino)ethyl 3-amino-6-(1-(piperidin-4-yl)-1H-pyrazol-4-yl)pyrazine-2-carboxylate--2,2,2-trifluoroacetaldehyde], which Kd is on record?
Its Kd is 5.6 nM.

How did the Kd turn out when `CC(=O)N1CC[C@@H](n2cc(-c3cnc(N)c(C(=O)OC(C(=O)Nc4ccc(F)cc4)c4ccccc4)n3)cn2)C1` (stereo partly drawn) [TDH-229, 2-((4-fluorophenyl)amino)-2-oxo-1-phenylethyl 6-(1-((R)-1-acetylpyrrolidin-3-yl)-1H-pyrazol-4-yl)-3-aminopyrazine-2-carboxylate] was run?
Its Kd is 1.1 nM.

How did the Kd turn out when `Nc1ncc(C2=CCN(C(=O)COCCOCCNC(=O)C3CN(c4ccc5c(c4)C(=O)N(C4CCC(=O)NC4=O)C5=O)C3)CC2)cc1C(=O)O[C@@H](C(=O)Nc1ccc(F)cc1)c1ccccc1` (stereo partly drawn) [TDH-087, (R)-2-((4-fluorophenyl)amino)-2-oxo-1-phenylethyl 6-amino-1′-(2-(2-(2-(1-(2-(2,6-dioxopiperidin-3-yl)-1,3-dioxoisoindolin-5-yl)azetidine-3-carboxamido)ethoxy)ethoxy)acetyl)-1′,2′,3′,6′-tetrahydro-[3,4′-bipyridine]-5-carboxylate] was run?
Its Kd is 38 nM.

With `Cc1cc(Nc2ncc(Cl)c(Nc3ccccc3S(=O)(=O)C(C)C)n2)c(OC(C)C)cc1C1CCNCC1` [Ceritinib (C2)] as the compound, how does the Kd read?
Its Kd is over 10000 nM.

How did the Kd turn out when `Nc1ncc(C2=CCN(C(=O)CCCCCNC(=O)C3CN(c4cccc5c4C(=O)N(C4CCC(=O)NC4=O)C5=O)C3)CC2)cc1C(=O)O[C@@H](C(=O)Nc1ccc(F)cc1)c1ccccc1` (stereo partly drawn) [TDH-078, (R)-2-((4-fluorophenyl)amino)-2-oxo-1-phenylethyl 6-amino-1′-(6-(1-(2-(2,6-dioxopiperidin-3-yl)-1,3-dioxoisoindolin-4-yl)azetidine-3-carboxamido)hexanoyl)-1′,2′,3′,6′-tetrahydro-[3,4′-bipyridine]-5-carboxylate] was run?
Its Kd is 90 nM.

`Nc1ncc(-c2cnn(C3CCNCC3)c2)nc1C(=O)O[C@@H](C(=O)Nc1ccccc1)c1ccccc1` [TDH-463, (R)-2-oxo-1-phenyl-2-(phenylamino)ethyl 3-amino-6-(1-(piperidin-4-yl)-1H-pyrazol-4-yl)pyrazine-2-carboxylate hydrochloride] was tested. Which Kd did it give?
Its Kd is 0.35 nM.

With `Cc1ccc(NC(=O)[C@H](OC(=O)c2nc(-c3cnn(C4CCNCC4)c3)cnc2N)c2ccccc2)cc1` [TDH-319, (R)-2-oxo-1-phenyl-2-(p-tolylamino)ethyl 3-amino-6-(1-(piperidin-4-yl)-1H-pyrazol-4-yl)pyrazine-2-carboxylate hydrochloride] as the compound, how does the Kd read?
Its Kd is 0.82 nM.

Which Kd does the source give for `Nc1ncc(C2=CCN(C(=O)COCCOCCNc3cccc4c3C(=O)N(C3CCC(=O)NC3=O)C4=O)CC2)cc1C(=O)O[C@@H](C(=O)Nc1ccc(F)cc1)c1ccccc1` (stereo partly drawn) [TDH-082, (R)-2-((4-fluorophenyl)amino)-2-oxo-1-phenylethyl 6-amino-1′-(2-(2-(2-((2-(2,6-dioxopiperidin-3-yl)-1,3-dioxoisoindolin-4-yl)amino)ethoxy)ethoxy)acetyl)-1′,2′,3′,6′-tetrahydro-[3,4′-bipyridine]-5-carboxylate] here?
Its Kd is 70 nM.

Which Kd does the source give for `CN(C)c1ccc(NC(=O)[C@H](OC(=O)c2nc(-c3cnn(C4CCNCC4)c3)cnc2N)c2ccccc2)cc1` [TDH-470, (R)-2-((4-(dimethylamino)phenyl)amino)-2-oxo-1-phenylethyl 3-amino-6-(1-(piperidin-4-yl)-1H-pyrazol-4-yl)pyrazine-2-carboxylate hydrochloride] here?
Its Kd is 3.8 nM.

`Nc1ncc(-c2cnn(C3CCNCC3)c2)nc1C(=O)O[C@@H](C(=O)Nc1ccc(C(F)(F)F)cc1)c1ccccc1` [TDH-459, (R)-2-oxo-1-phenyl-2-((4-(trifluoromethyl)phenyl)amino)ethyl 3-amino-6-(1-(piperidin-4-yl)-1H-pyrazol-4-yl)pyrazine-2-carboxylate hydrochloride] was tested. Which Kd did it give?
Its Kd is 6.5 nM.

With `Cc1ccc([C@@H](OC(=O)c2nc(-c3cnn(C4CCNCC4)c3)cnc2N)C(=O)Nc2ccc(F)cc2)cc1` [TDH-320, (R)-2-((4-fluorophenyl)amino)-2-oxo-1-(p-tolyl)ethyl 3-amino-6-(1-(piperidin-4-yl)-1H-pyrazol-4-yl)pyrazine-2-carboxylate hydrochloride] as the compound, how does the Kd read?
The Kd was 1.7 nM.

Which Kd does the source give for `Nc1nccnc1C(=O)O[C@@H](C(=O)Nc1ccc(F)cc1)c1ccccc1` [TDH-001, (R)-2-((4-fluorophenyl)amino)-2-oxo-1-phenylethyl 3-aminopyrazine-2-carboxylate] here?
Its Kd is 94 nM.

With `CN(C(=O)c1nc(-c2cnn(C3CCNCC3)c2)cnc1N)[C@@H](C(=O)Nc1ccc(F)cc1)c1ccccc1` [TDH-490, (R)-3-amino-N-(2-((4-fluorophenyl)amino)-2-oxo-1-phenylethyl)-N-methyl-6-(1-(piperidin-4-yl)-1H-pyrazol-4-yl)pyrazine-2-carboxamide hydrochloride] as the compound, how does the Kd read?
Its Kd is 400 nM.

With `Nc1ncc(-c2cnn(C3CCN(CCCCCCCCCCNc4cccc5c4C(=O)N(C4CCC(=O)NC4=O)C5=O)CC3)c2)nc1C(=O)O[C@@H](C(=O)Nc1ccc(F)cc1)c1ccccc1` (stereo partly drawn) [TDH-095, (R)-2-((4-fluorophenyl)amino)-2-oxo-1-phenylethyl 3-amino-6-(1-(1-(10-((2-(2,6-dioxopiperidin-3-yl)-1,3-dioxoisoindolin-4-yl)amino)decyl)piperidin-4-yl)-1H-pyrazol-4-yl)pyrazine-2-carboxylate] as the compound, how does the Kd read?
The Kd was 26 nM.

For `CC(=O)N1CCC(n2cc(-c3cnc(N)c(C(=O)O[C@@H](C(=O)Nc4ccc(F)cc4)c4ccccc4)n3)cn2)CC1` [TDH-097, (R)-2-((4-fluorophenyl)amino)-2-oxo-1-phenylethyl 6-(1-(1-acetylpiperidin-4-yl)-1H-pyrazol-4-yl)-3-aminopyrazine-2-carboxylate], which Kd is on record?
Its Kd is 0.73 nM.

How did the Kd turn out when `CC1CCC(NC(=O)[C@H](OC(=O)c2nc(-c3cnn(C4CCNCC4)c3)cnc2N)c2ccccc2)CC1` (stereo partly drawn) [TDH-424, (R)-2-((4-methylcyclohexyl)amino)-2-oxo-1-phenylethyl 3-amino-6-(1-(piperidin-4-yl)-1H-pyrazol-4-yl)pyrazine-2-carboxylate hydrochloride] was run?
The Kd was 5.1 nM.

system: FADD−/− Jurkat cells; assay: Necroptosis inhibition assay, TNF-α-induced necroptosis (CellTiter-Glo 2.0); type: cell-based, human; conditions: compound 1 μM; TNF-α 15 ng/mL
Experimental: Necroptosis Inhibition Assay
Necroptosis inhibition was evaluated by the following method.
80 μL of FADD gene-defective human T lymphocyte cells (FADD−/− Jurkat cells) were equally distributed into each well at 5.0×10^5 cells/mL in a white 96-well plate with a transparent bottom. 20 μL of the medium containing test compound was treated in each well so that the final concentration of the compound was 0.1, 1, and 10 μM, and reacted at room temperature for 30 minutes. After the 30-minute reaction was over, TNF (tumor necrosis factor)-α was treated in the corresponding well so that the final concentration of TNF-α was 15 ng/mL in order to induce necroptosis. It was cultured in a 5% CO2, 37° C. incubator for 20 to 24 hours.
After incubation, the 96-well plate was left at room temperature for 30 minutes. After 30 minutes, Promega's CellTiter-Glo 2.0 reagent was diluted 1:3 with PBS and 100 μL of the diluted solution was added to each well to confirm cell viability by measuring the amount of ATP. After the treatment, the plate was shielded from light and incubated at room temperature for 2 minutes with orbital shaking, and then left at room temperature for 10 minutes without shaking. After measuring the luminescence at 0.5 seconds per well using a plate scanner, the cytotoxicity and necroptosis inhibition rate for the compound were calculated using the measured values.

Which “Necroptosis inhibition assay (Rescue %) 1 μM” value does the source give for `Nc1nccnc1C(=O)N[C@@H](C(=O)Nc1ccc(F)cc1)c1ccccc1` [TDH-106, (R)-3-amino-N-(2-((4-fluorophenyl)amino)-2-oxo-1-phenylethyl)pyrazine-2-carboxamide] here?
Its value is 13.76%.

same assay, conditions: compound 10 μM; TNF-α 15 ng/mL

With `Nc1nccnc1C(=O)N[C@@H](C(=O)Nc1ccc(F)cc1)c1ccccc1` [TDH-106, (R)-3-amino-N-(2-((4-fluorophenyl)amino)-2-oxo-1-phenylethyl)pyrazine-2-carboxamide] as the compound, how does the “Necroptosis inhibition assay (Rescue %) 10 μM” value read?
The value was 34.33%.
